In data set [1] the target is T1, Aromatase (Homo sapiens, UniProt P11511).
T1 sequence (P11511 whole entry): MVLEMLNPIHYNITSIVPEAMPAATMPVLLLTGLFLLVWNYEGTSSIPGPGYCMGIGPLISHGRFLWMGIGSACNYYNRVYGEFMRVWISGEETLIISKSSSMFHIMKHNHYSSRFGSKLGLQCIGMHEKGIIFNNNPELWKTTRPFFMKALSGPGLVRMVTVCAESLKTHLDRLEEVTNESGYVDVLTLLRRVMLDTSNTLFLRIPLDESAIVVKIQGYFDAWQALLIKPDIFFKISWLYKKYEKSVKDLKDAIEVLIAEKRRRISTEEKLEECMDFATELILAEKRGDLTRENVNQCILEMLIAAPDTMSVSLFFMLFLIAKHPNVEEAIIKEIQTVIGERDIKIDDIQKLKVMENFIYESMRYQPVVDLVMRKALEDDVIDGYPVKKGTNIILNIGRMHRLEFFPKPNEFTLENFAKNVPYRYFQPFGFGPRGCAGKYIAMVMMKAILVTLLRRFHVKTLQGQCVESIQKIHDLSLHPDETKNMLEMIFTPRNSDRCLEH
The experiment in a line: Inhibition of human placental microsome aromatase at 2 uM using [1beta3H]-androstenedione as substrate measured after 15 mins in presence of NADPH by liquid scintillation counting method relative to control. In kind it is microsomes, Placenta. The following applies: 0.25 h.

Data set [2] addresses T1, Aromatase. The experiment in a line: Competitive reversible inhibition of human placental microsome aromatase using varying levels of [1beta3H]-androstenedione as substrate measured after 5 mins in presence of NADPH by Dixon-plot analysis. Type of data set: microsomes, Placenta. Conditions: read-out: Ki(app).
Data set [3] deals with T1, Aromatase. The experiment in a line: Ratio of Km to Ki for human placental microsome aromatase using varying levels of [1beta3H]-androstenedione as substrate measured after 5 mins in presence of NADPH by Dixon-plot analysis. The arrangement: species or system Placenta. The following applies: microsomes.
Data set [4] addresses T1, Aromatase. Briefly: Competitive reversible inhibition of human placental microsome aromatase using varying levels of [1beta3H]-androstenedione as substrate measured after 5 mins in presence of NADPH by Lineweaver-burk plot analysis. Details: species or system Placenta. Conditions: microsomes.
Data set [5] concerns the target T1, Aromatase. Briefly: Inhibition of human placental microsome aromatase using [1beta3H]-androstenedione as substrate measured after 15 mins in presence of NADPH by liquid scintillation counting method. The following applies: for inhibition (INH): human, microsomes, 0.25 h. In kind it is microsomes, Placenta.
Data set [6] deals with T1, Aromatase. Briefly: Competitive reversible inhibition of human placental microsome aromatase assessed as substrate Vmax per ug protein using varying levels of [1beta3H]-androstenedione as substrate measured after 5 mins in presence of NADPH by Dixon-plot analysis. The following applies: microsomes. Details: species or system Placenta.
The target in data set [7] is T1, Aromatase. Briefly: Inhibition of […] aromatase expressed in human MCF7 cells at 10 uM using [1beta3H]-androstenedione as substrate measured after 1 hr in presence of progesterone relative to control.
The target of data set [8] is T1, Aromatase. Briefly: Competitive irreversible inhibition of human placental microsome aromatase using varying levels of [1beta3H]-androstenedione as substrate measured after 5 mins in presence of NADPH by Dixon-plot analysis. The following applies: read-out: Ki(app). Type of data set: microsomes, Placenta.
The next data set deals with MCF7. The experiment in a line: Induction of crystal formation in human MCF7 cells transfected with human placental microsome aromatase at 10 uM measured after 1 hr. Type of data set: functional, cell-based.
Data set [9] concerns the target T1, Aromatase. Briefly: Competitive irreversible inhibition of human placental microsome aromatase using varying levels of [1beta3H]-androstenedione as substrate measured after 5 mins in presence of NADPH by Lineweaver-burk plot analysis. The arrangement: species or system Placenta. The following applies: microsomes.

Structures are written as SMILES. Activity calls are given as the source filed them. The rule behind the calls is not given here.

Turning to `C[C@]12CCC(=O)C=C1C[C@@H](O)[C@@H]1[C@@H]2CC[C@]2(C)C(=O)CC[C@@H]12`, the inhibition at 2 µM on Aromatase [1] turned out to be 49.8%.
With `C[C@H]1C[C@@H]2[C@H](CC[C@]3(C)C(=O)CC[C@@H]23)[C@@]2(C)CCC(=O)C=C12`, the inhibition at 2 µM at Aromatase [1] came to 98.7%. The Ki at Aromatase [2] was found to be 25 nM; on Aromatase [8], 22.5 nM. Moreover, the Ratio on Aromatase [3] is given as 2.53. Besides, the “inhibition (INH)” value on Aromatase [4] is given as “Active”; on Aromatase [5], “Dose-dependent effect”. In addition, the IC50 at Aromatase [5] is 60 nM. The maximum rate (Vmax) at Aromatase [6] came to 0.0191 nmol/min. Besides, on Aromatase [7], the inhibition at 10 µM was 98.6%.
For the molecule `C[C@H]1C[C@@H]2[C@H](CC[C@]3(C)C(=O)CC[C@@H]23)[C@@]2(C)CCCC=C12`, in the data set on MCF7, the outcome was Active. The inhibition at 2 µM at Aromatase [1] was found to be 96.7%. On Aromatase [5], the IC50 came out at 170 nM.
Take `C[C@@H]1CC2=CC(=O)CC[C@]2(C)[C@H]2CC[C@]3(C)C(=O)CC[C@H]3[C@H]12`: the inhibition at 2 µM at Aromatase [1] was 94.3%. Moreover, the IC50 on Aromatase [5] is 270 nM. Moreover, the inhibition at 10 µM on Aromatase [7] amounted to 90.8%.
For `C=CC[C@H]1C[C@@H]2[C@H](CC[C@]3(C)C(=O)CC[C@@H]23)[C@@]2(C)CCCC=C12`, in that order: 92.4%, 210 nM and 84.1%.
For `C[C@]12CCC(=O)C=C1[C@H](O)C[C@@H]1[C@@H]2CC[C@]2(C)C(=O)CC[C@@H]12` the same measures were 88.6%, 840 nM and 88.2%.
Regarding `C=CC[C@H]1C[C@@H]2[C@H](CC[C@]3(C)C(=O)CC[C@@H]23)[C@@]2(C)C=CC(=O)C=C12`, on Aromatase [1], the inhibition at 2 µM turned out to be 97.6%. Besides, the Ratio at Aromatase [3] is on record as 2.81. For the same molecule, the “inhibition (INH)” value on Aromatase [9] is on record as “Active”. In addition, at Aromatase [5], the IC50 turned out to be 55 nM and the “inhibition (INH)” value is recorded as “Dose-dependent effect”. The inhibition at 10 µM on Aromatase [7] stood at 99.2%.
Take `C[C@H]1C[C@@H]2[C@H](CC[C@]3(C)C(=O)CC[C@@H]23)[C@@]2(C)CCC=C[C@H]12`: the inhibition at 2 µM at Aromatase [1] amounted to 93.5%. Further, at Aromatase [5], the IC50 is 560 nM. In addition, the inhibition at 10 µM on Aromatase [7] came to 88.7%.
Regarding `C[C@H]1C[C@H]2[C@@H]3CCC(=O)[C@@]3(C)CC[C@@H]2[C@@]2(C)CCC[C@H]3O[C@]132`, on Aromatase [1], the inhibition at 2 µM worked out at 58.7%.
On the same count and under the same terms, under `C[C@@H]1C[C@@]23O[C@@H]2CCC[C@]3(C)[C@H]2CC[C@]3(C)C(=O)CC[C@H]3[C@H]12` stands 64.9%; under `C[C@H]1C[C@H]2[C@@H]3CCC(=O)[C@@]3(C)CC[C@@H]2[C@@]2(C)CCC[C@@H]3O[C@]312`, 76.2%; under `C[C@@H]1C[C@@H]2[C@H]3O[C@H]3CC[C@]2(C)[C@H]2CC[C@]3(C)C(=O)CC[C@H]3[C@H]12`, 13.7%.
For the molecule `C=CC[C@H]1C[C@@H]2[C@H](CC[C@]3(C)C(=O)CC[C@@H]23)[C@@]2(C)CCC(=O)C=C12`, the inhibition at 2 µM on Aromatase [1] is 97.2%. Further, at Aromatase [5], the IC50 is 105 nM and the “inhibition (INH)” value is on record as “Dose-dependent effect”. Further, the inhibition at 10 µM on Aromatase [7] came to 96.5%.
Take `C=CC[C@@H]1CC2=CC(=O)C=C[C@]2(C)[C@H]2CC[C@]3(C)C(=O)CC[C@H]3[C@H]12`: at Aromatase [7], the inhibition at 10 µM is 96.3%.
Take `C=CC[C@@H]1CC2=C(O)C(=O)CC[C@]2(C)[C@H]2CC[C@]3(C)C(=O)CC[C@H]3[C@H]12`: the outcome in the data set on MCF7 was Active. The inhibition at 2 µM at Aromatase [1] came out at 91.8%. On Aromatase [5], the IC50 was 110 nM and the “inhibition (INH)” value was “Dose-dependent effect”.
Consider `C[C@H]1C[C@@H]2[C@H](CC[C@]3(C)C(=O)CC[C@@H]23)[C@@]2(C)CC[C@H]3O[C@H]3[C@H]12`, for which the inhibition at 2 µM at Aromatase [1] was 96.7%. Moreover, the IC50 at Aromatase [5] worked out at 175 nM. Further, the inhibition at 10 µM on Aromatase [7] is 84.2%.
For `C=CC[C@H]1C[C@@H]2[C@H](CC[C@]3(C)C(=O)CC[C@@H]23)[C@@]2(C)CCC(=O)C(O)=C12` the same measures were 90.1%, 520 nM and 80.7%.
For `C=CC[C@@H]1CC2=CC(=O)CC[C@]2(C)[C@H]2CC[C@]3(C)C(=O)CC[C@H]3[C@H]12`, the inhibition at 10 µM on Aromatase [7] is 92.6%.
As for `C[C@@H]1CC2=CCCC[C@]2(C)[C@H]2CC[C@]3(C)C(=O)CC[C@H]3[C@H]12`, on Aromatase [1], the inhibition at 2 µM stood at 97.4%. For the same molecule, the IC50 on Aromatase [5] was found to be 405 nM. Besides, the inhibition at 10 µM on Aromatase [7] was determined as 89.5%.
For `C[C@]12CCC(=O)C=C1[C@@H](O)C[C@@H]1[C@@H]2CC[C@]2(C)C(=O)CC[C@@H]12` the same measures were 90.7%, 880 nM and 88.4%.
For `C=CC[C@@H]1CC2=CCCC[C@]2(C)[C@H]2CC[C@]3(C)C(=O)CC[C@H]3[C@H]12`, the inhibition at 10 µM at Aromatase [7] was found to be 74.7%.
On to `C[C@]12CCC(=O)C(O)=C1CC[C@@H]1[C@@H]2CC[C@]2(C)C(=O)CC[C@@H]12` [FORMESTANE], for which, on Aromatase [1], the inhibition at 2 µM came out at 99.2%. In addition, the inhibition at 10 µM on Aromatase [7] came out at 97.1%.
